Assay results taken from PubChem BioAssay (NCI).
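Assay format: 96-well plates, 48-hour exposure. GI50 is the concentration that inhibits growth by half. The concentration for full growth arrest is given as TGI.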

Experiments:
Assay in all cases: NCI-60 cell line screen, 48 h
[1] = tested on: SK-MEL-5 melanoma
[2] = tested on: SK-OV-3 ovarian
[3] = tested on: A498 renal
[4] = tested on: SR leukemia
[5] = tested on: OVCAR-5 ovarian
[6] = tested on: HS 578T breast
[7] = tested on: LOX IMVI melanoma
[8] = tested on: SW-620 colon
[9] = tested on: KM12 colon
[10] = tested on: NCI-H460 lung
[11] = tested on: MCF7 breast
[12] = tested on: OVCAR-4 ovarian
[13] = tested on: UACC-62 melanoma
[14] = tested on: HT29 colon
[15] = tested on: SNB-75 CNS
[16] = tested on: MDA-MB-231 breast
[17] = tested on: CCRF-CEM leukemia
[18] = tested on: HCC-2998 colon
[19] = tested on: UO-31 renal
[20] = tested on: TK-10 renal
[21] = tested on: PC-3 prostate
[22] = tested on: ACHN renal
[23] = tested on: SK-MEL-28 melanoma
[24] = tested on: IGROV1 ovarian
[25] = tested on: 786-0 renal
[26] = tested on: EKVX NSCLC
[27] = tested on: BT-549 breast
[28] = tested on: NCI-H522 lung
[29] = tested on: SK-MEL-2 melanoma
[30] = tested on: M14 melanoma
[31] = tested on: K-562 leukemia
[32] = tested on: T-47D breast
[33] = tested on: UACC-257 melanoma
[34] = tested on: OVCAR-8 ovarian
[35] = tested on: A549 NSCLC
[36] = tested on: CAKI-1 renal
[37] = tested on: NCI/ADR-RES ovarian
[38] = tested on: NCI-H23 lung
[39] = tested on: HOP-92 NSCLC
[40] = tested on: HCT-116 colon
[41] = tested on: SF-268 CNS
[42] = tested on: SN12C renal
[43] = tested on: MOLT-4 leukemia
[44] = tested on: RPMI-8226 leukemia
[45] = tested on: SF-295 CNS
[46] = tested on: SF-539 CNS
[47] = tested on: SNB-19 CNS
[48] = tested on: MALME-3M melanoma
[49] = tested on: HOP-62 NSCLC
[50] = tested on: RXF 393 renal
[51] = tested on: HL-60(TB) leukemia
[52] = tested on: DU-145 prostate
[53] = tested on: COLO 205 colon
[54] = tested on: U251 CNS
[55] = tested on: OVCAR-3 ovarian
[56] = tested on: NCI-H226 lung
[57] = tested on: HCT-15 colon

`COc1cc2c(c(OC)c1OC)-c1ccc(NN(C(=O)c3ccccc3)C(=O)c3ccccc3)c(=O)cc1[C@@H](NC(C)=O)CC2` (tested in a mixture with another compound) showed a GI50 [1] of 2490 nM, a TGI [1] of 11 µM and a GI50 [2] of 2650 nM. It also gave a TGI [2] of 8.77 µM, a GI50 [3] of 3.78 µM and a TGI [3] of 52 µM. For the same compound, the GI50 [4] was 3.76 µM, the TGI [4] was > 100 µM and the GI50 [5] was 3.95 µM. For the same compound, the TGI [5] was > 100 µM, the GI50 [6] was 1900 nM and the TGI [6] was 6.3 µM. For the same compound, the GI50 [7] was 4.24 µM, the TGI [7] was 16.5 µM and the GI50 [8] was 3.73 µM. It also gave a TGI [8] of 15.3 µM, a GI50 [9] of 3.63 µM and a TGI [9] of 25.7 µM. It also gave a GI50 [10] of 2980 nM, a TGI [10] of 11.2 µM and a GI50 [11] of 3.84 µM. The TGI [11] was > 100 µM, the GI50 [12] was 7.06 µM and the TGI [12] was > 100 µM. It also gave a GI50 [13] of 4.18 µM, a TGI [13] of 42.1 µM and a GI50 [14] of 2930 nM. For the same compound, the TGI [14] was 11.1 µM, the GI50 [15] was 5.08 µM and the TGI [15] was > 100 µM. The GI50 [16] was 3.39 µM, the TGI [16] was > 100 µM and the GI50 [17] was 3.57 µM. The TGI [17] was > 100 µM, the GI50 [18] was 3.23 µM and the TGI [18] was 12.7 µM. For the same compound, the GI50 [19] was 4.59 µM, the TGI [19] was 41.6 µM and the GI50 [20] was 4.04 µM. The TGI [20] was 42.5 µM, the GI50 [21] was 4.69 µM and the TGI [21] was > 100 µM. It also gave a GI50 [22] of 4.27 µM, a TGI [22] of 24.8 µM and a GI50 [23] of 8.76 µM. The TGI [23] was 29 µM, the GI50 [24] was 4.6 µM and the TGI [24] was 63 µM. The GI50 [25] was 3.31 µM, the TGI [25] was 13.4 µM and the GI50 [26] was 8.09 µM. For the same compound, the TGI [26] was > 100 µM, the GI50 [27] was 2630 nM and the TGI [27] was 8.15 µM. The GI50 [28] was 2010 nM, the TGI [28] was 6.18 µM and the GI50 [29] was 3.42 µM. For the same compound, the TGI [29] was 16.6 µM, the GI50 [30] was 2360 nM and the TGI [30] was 6.45 µM. The GI50 [31] was 4.03 µM, the TGI [31] was > 100 µM and the GI50 [32] was 4.71 µM. It also gave a TGI [32] of 42 µM, a GI50 [33] of 14.4 µM and a TGI [33] of 62.9 µM. The GI50 [34] was 3.86 µM, the TGI [34] was 42.7 µM and the GI50 [35] was 4.02 µM. For the same compound, the TGI [35] was > 100 µM, the GI50 [36] was 4.62 µM and the TGI [36] was 47.1 µM. For the same compound, the GI50 [37] was 4.37 µM, the TGI [37] was > 100 µM and the GI50 [38] was 3.91 µM. The TGI [38] was 37.6 µM, the GI50 [39] was 3.84 µM and the TGI [39] was > 100 µM. For the same compound, the GI50 [40] was 2950 nM, the TGI [40] was 8.88 µM and the GI50 [41] was 4.61 µM. For the same compound, the TGI [41] was > 100 µM, the GI50 [42] was 5.38 µM and the TGI [42] was > 100 µM. For the same compound, the GI50 [43] was 4.08 µM, the TGI [43] was > 100 µM and the GI50 [44] was 4.72 µM. For the same compound, the TGI [44] was 82.5 µM, the GI50 [45] was 3.81 µM and the TGI [45] was > 100 µM. The GI50 [46] was 3.08 µM, the TGI [46] was 10.5 µM and the GI50 [47] was 6.7 µM. For the same compound, the TGI [47] was > 100 µM, the GI50 [48] was 17.6 µM and the TGI [48] was > 100 µM. The GI50 [49] was 4.54 µM, the TGI [49] was 30.3 µM and the GI50 [50] was 2240 nM. The TGI [50] was 8 µM, the GI50 [51] was 2100 nM and the TGI [51] was 14.7 µM. The GI50 [52] was 3.3 µM, the TGI [52] was > 100 µM and the GI50 [53] was 3.02 µM. For the same compound, the TGI [53] was 12.2 µM, the GI50 [54] was 3.77 µM and the TGI [54] was 21.3 µM. The GI50 [55] was 2800 nM, the TGI [55] was 13.4 µM and the GI50 [56] was 10.6 µM. It also gave a TGI [56] of 37.4 µM, a GI50 [57] of 3.64 µM and a TGI [57] of 14.9 µM.
